These results are taken from the NIST ThermoML archive (doi:10.1021/acs.jced.6b00686).

± gives the expanded uncertainty stated by the source.

The data set can be described thus: refractive index (Na D-line) (dimensionless). Particulars: 293.15 K; 101.3 kPa; Liquid; Standard Abbe refractometry.
One may read the refractive index as the speed of light in vacuum divided by its phase velocity in the sample. For the compound `CCCCOC=O` [butyl methanoate], the refractive index is given as 1.3887 ± 0.0005.

With `O=C(O)CS` [2-mercaptoacetic acid], the refractive index came out at 1.5027 ± 0.0005.

In the case of `O` [water], the refractive index is 1.3327 ± 0.0005.

Consider `CCCCOC(C)=O` [butyl ethanoate], for which the refractive index stood at 1.394 ± 0.0005.

Take `CC(=O)OCC(C)C` [2-methylpropyl ethanoate]: the refractive index is recorded as 1.3905 ± 0.0005.
